Test results reported in ChEMBL document CHEMBL1201862, “PubChem BioAssay data set” (2004).
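These data come from cells grown in 96-well plates and exposed to compound for 48 hours at five concentrations. GI50: concentration for 50% inhibition of growth.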 The source made the active and inactive calls. Rule as the data show it: active = GI50 up to about 1.1 µM and inactive = higher.

Legend:
Assay in all cases: growth of human tumour cells (NCI), 48 h
A498 = test system: A498
COLO 205 = test system: COLO 205
HCT-116 = test system: HCT-116
HL-60 = test system: HL-60
HOP-62 = test system: HOP-62
K562 = test system: K562
KM12 = test system: KM12
MCF7 = test system: MCF7
NCI-H23 = test system: NCI-H23
NCI-H522 = test system: NCI-H522
OVCAR-3 = test system: OVCAR-3
OVCAR-8 = test system: OVCAR-8
RXF 393 = test system: RXF 393
SK-MEL-2 = test system: SK-MEL-2
SNB-19 = test system: SNB-19
SNB-75 = test system: SNB-75
UO-31 = test system: UO-31
ACHN = test system: ACHN
M14 = test system: M14
SR = test system: SR

Row | Structure (SMILES) | GI50 (A498) | GI50 (COLO 205) | GI50 (HCT-116) | GI50 (HL-60) | GI50 (HOP-62) | GI50 (K562) | GI50 (KM12) | GI50 (MCF7) | GI50 (NCI-H23) | GI50 (NCI-H522) | GI50 (OVCAR-3) | GI50 (OVCAR-8) | GI50 (RXF 393) | GI50 (SK-MEL-2) | GI50 (SNB-19) | GI50 (SNB-75) | GI50 (UO-31) | GI50 (ACHN) | GI50 (M14) | GI50 (SR)
1 | COC1C(O)C(n2ncc3c(SC)nc(SC)nc32)OC1C(O)CO (stereo not drawn) | > 100 µM (inactive) | > 100 µM (inactive) | > 100 µM (inactive) | > 100 µM (inactive) | > 100 µM (inactive) | > 100 µM (inactive) | > 100 µM (inactive) | > 100 µM (inactive) | > 100 µM (inactive) | > 100 µM (inactive) | > 100 µM (inactive) | > 100 µM (inactive) | > 100 µM (inactive) | > 100 µM (inactive) | > 100 µM (inactive) | > 100 µM (inactive) | > 100 µM (inactive) |  |  | 
2 | Cc1ccc(S(=O)(=O)N(C=O)N=C2CCN(Cc3ccccc3)CC2)cc1 | > 100 µM (inactive) | > 100 µM (inactive) | > 100 µM (inactive) | > 100 µM (inactive) | > 100 µM (inactive) | > 100 µM (inactive) | > 100 µM (inactive) |  | > 100 µM (inactive) | > 100 µM (inactive) | > 100 µM (inactive) | > 100 µM (inactive) | > 100 µM (inactive) | > 100 µM (inactive) | > 100 µM (inactive) | > 100 µM (inactive) | > 100 µM (inactive) | > 100 µM (inactive) | > 100 µM (inactive) | > 100 µM (inactive)
3 | C=CCOCCC(CC=C)C(=O)CC(=O)OC (stereo not drawn) | > 100 µM (inactive) |  | 45.6 µM (inactive) | 13.5 µM (inactive) | > 100 µM (inactive) | 19.3 µM (inactive) | > 100 µM (inactive) |  | > 100 µM (inactive) | > 100 µM (inactive) | > 100 µM (inactive) | > 100 µM (inactive) | > 100 µM (inactive) | > 100 µM (inactive) | > 100 µM (inactive) | 25.9 µM (inactive) | > 100 µM (inactive) | > 100 µM (inactive) | > 100 µM (inactive) | 3.56 µM (inactive)
4 | COc1cc2c(oc(=O)c3cc(C)cc(OC)c32)c2c(C3OC(C)C(O)C(C)(O)C3O)ccc(O)c12 (stereo not drawn) | 0.465 µM (active) | 0.551 µM (active) | 0.216 µM (active) | 0.045 µM (active) | 0.284 µM (active) | 0.277 µM (active) | 0.771 µM (active) | 0.237 µM (active) | 0.223 µM (active) | 0.389 µM (active) | 0.785 µM (active) | 0.256 µM (active) | 0.38 µM (active) | 0.794 µM (active) | 0.562 µM (active) | 0.571 µM (active) | 1.04 µM (active) |  |  | 
5 | CSc1nc(NC2OC(COC(C)=O)C(OC(C)=O)C(OC(C)=O)C2OC(C)=O)c2c(OC(C)=O)c(C)c(=O)oc2n1 (stereo not drawn) | > 100 µM (inactive) | > 100 µM (inactive) | > 100 µM (inactive) | > 100 µM (inactive) | > 100 µM (inactive) | > 100 µM (inactive) | > 100 µM (inactive) |  | > 100 µM (inactive) |  | > 100 µM (inactive) | > 100 µM (inactive) | > 100 µM (inactive) | > 100 µM (inactive) | > 100 µM (inactive) | > 100 µM (inactive) | > 100 µM (inactive) | > 100 µM (inactive) | > 100 µM (inactive) | 
6 | Nc1ccccc1Sc1ccc(Cl)cc1 | 54.2 µM (inactive) | 21.1 µM (inactive) | 34.3 µM (inactive) | 18.7 µM (inactive) | 31.4 µM (inactive) | 27.8 µM (inactive) | 33.4 µM (inactive) |  | 26.2 µM (inactive) |  | 25.6 µM (inactive) | 37.5 µM (inactive) | 13.5 µM (inactive) | 27.9 µM (inactive) |  | 18.1 µM (inactive) | 17.9 µM (inactive) | 27 µM (inactive) | 31.8 µM (inactive) | 21.2 µM (inactive)
7 | N#CC1=C(O)NC(O)=C(C#N)C1c1c(Cl)cccc1Cl | 23.2 µM (inactive) | 37.1 µM (inactive) | 29 µM (inactive) | 81.5 µM (inactive) | 27.7 µM (inactive) | > 100 µM (inactive) | 22.1 µM (inactive) |  | 29.4 µM (inactive) | 35.2 µM (inactive) | 32.9 µM (inactive) | 20.2 µM (inactive) | 7.8 µM (inactive) | 18.8 µM (inactive) | 38.6 µM (inactive) | 11.7 µM (inactive) | 37.9 µM (inactive) | 33.3 µM (inactive) | 26.9 µM (inactive) | > 100 µM (inactive)
8 | C=CCC12CC(=O)C=C1CCC1(C2)OCCO1 (stereo not drawn) | > 100 µM (inactive) | > 100 µM (inactive) | > 100 µM (inactive) | > 100 µM (inactive) | > 100 µM (inactive) | > 100 µM (inactive) | > 100 µM (inactive) |  |  | > 100 µM (inactive) | > 100 µM (inactive) |  | > 100 µM (inactive) | > 100 µM (inactive) | > 100 µM (inactive) | > 100 µM (inactive) | > 100 µM (inactive) | > 100 µM (inactive) | > 100 µM (inactive) | > 100 µM (inactive)
9 | CCOC(=O)c1c[nH]c2cc3c(cc2c1=O)CCS3(=O)=O.CCOC(=O)c1c[nH]c2ccc3c(c2c1=O)S(=O)(=O)CC3 | > 100 µM (inactive) | > 100 µM (inactive) | > 100 µM (inactive) | > 100 µM (inactive) | > 100 µM (inactive) | > 100 µM (inactive) | > 100 µM (inactive) | 83.8 µM (inactive) | > 100 µM (inactive) | > 100 µM (inactive) | > 100 µM (inactive) | > 100 µM (inactive) | > 100 µM (inactive) | > 100 µM (inactive) | > 100 µM (inactive) | > 100 µM (inactive) | > 100 µM (inactive) |  |  | 
10 | Nc1ccccc1S(=O)(=O)c1ccccc1 | > 100 µM (inactive) | > 100 µM (inactive) | > 100 µM (inactive) | > 100 µM (inactive) | > 100 µM (inactive) | > 100 µM (inactive) | > 100 µM (inactive) |  | > 100 µM (inactive) |  | > 100 µM (inactive) | > 100 µM (inactive) | > 100 µM (inactive) | > 100 µM (inactive) | > 100 µM (inactive) | 41.1 µM (inactive) | > 100 µM (inactive) | > 100 µM (inactive) | > 100 µM (inactive) | > 100 µM (inactive)
11 | CN(C)CCCNC(=O)N/N=C/c1ccccc1 | > 100 µM (inactive) |  | > 100 µM (inactive) | > 100 µM (inactive) |  | > 100 µM (inactive) | > 100 µM (inactive) |  |  | > 100 µM (inactive) | > 100 µM (inactive) | > 100 µM (inactive) | > 100 µM (inactive) | > 100 µM (inactive) | > 100 µM (inactive) | > 100 µM (inactive) | > 100 µM (inactive) | > 100 µM (inactive) |  | 
12 | O=c1c(-c2ccccc2)c2oc(c1-c1ccccc1)CS(=O)(=O)CCC2 |  | 21 µM (inactive) | 12.7 µM (inactive) | 25.6 µM (inactive) | 42.6 µM (inactive) | 31.1 µM (inactive) | 32.2 µM (inactive) |  | 17.6 µM (inactive) | 9.98 µM (inactive) | 22.6 µM (inactive) | 36.8 µM (inactive) | 13.8 µM (inactive) | > 100 µM (inactive) | > 100 µM (inactive) |  |  | 29 µM (inactive) |  | 23.3 µM (inactive)
13 | O=C1NC(=O)C(CCO)(c2ccccc2)C(=O)N1 | > 100 µM (inactive) | > 100 µM (inactive) | > 100 µM (inactive) | > 100 µM (inactive) | > 100 µM (inactive) | > 100 µM (inactive) | > 100 µM (inactive) | > 100 µM (inactive) | > 100 µM (inactive) | > 100 µM (inactive) | > 100 µM (inactive) | > 100 µM (inactive) | > 100 µM (inactive) | > 100 µM (inactive) | > 100 µM (inactive) | > 100 µM (inactive) | > 100 µM (inactive) |  |  | 
14 | COc1ccc2[nH]c3c(C)c4ccncc4c(C)c3c2c1 | 0.504 µM (active) | 0.19 µM (active) | 0.0425 µM (active) | 0.532 µM (active) | 0.946 µM (active) | 0.196 µM (active) | 0.152 µM (active) | 0.359 µM (active) | 0.34 µM (active) | 0.681 µM (active) | 0.402 µM (active) | 0.111 µM (active) | 0.1 µM (active) | 1.86 µM (inactive) | 0.532 µM (active) | 1.17 µM (inactive) | 1.42 µM (inactive) |  |  | 
15 | c1ccc2c(c1)NCc1cc3ccccc3nc1O2 | > 75.5 µM (inactive) | > 100 µM (inactive) | > 100 µM (inactive) | 55.6 µM (inactive) | > 100 µM (inactive) | > 100 µM (inactive) | > 100 µM (inactive) | 16 µM (inactive) | > 100 µM (inactive) | > 100 µM (inactive) | > 100 µM (inactive) | > 100 µM (inactive) | > 100 µM (inactive) | > 100 µM (inactive) | > 100 µM (inactive) | > 84.5 µM (inactive) | 26.9 µM (inactive) |  |  | 
16 | O=C(O)c1ccc(Nc2c3ccccc3nc3ccccc23)cc1 | 52.6 µM (inactive) | > 100 µM (inactive) | 45 µM (inactive) | 47.9 µM (inactive) | > 67.3 µM (inactive) | 76.2 µM (inactive) | > 100 µM (inactive) | 71.1 µM (inactive) | > 72.3 µM (inactive) | > 75.7 µM (inactive) | > 100 µM (inactive) | 64 µM (inactive) | > 100 µM (inactive) | > 100 µM (inactive) | > 86.7 µM (inactive) | > 83.9 µM (inactive) | 54.6 µM (inactive) |  |  | 
